# Test results from patent US20110053897A1 (IRM LLC, priority 2009, published 2011).
# Like-named read-outs stand apart in the source and are kept apart here.
# Target: T1, Syk kinase (Homo sapiens, UniProt P43405)
# T1 construct: purchased
# Assay: Syk kinase inhibition, Caliper LabChip off-chip mobility-shift kinase assay
# Type: biochemical
# Settings: read-out: Syk Enzyme IC50
# Outline: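 Purified Syk pre-incubated 15 min with compound in 100 mM HEPES pH 7.5, 1 mM DTT, 10 mM MgCl2 or MnCl2, 0.002% Brij-35, then 1.5 μM fluorescein peptide and ATP at apparent KM added; 1–1.5 h at room temperature, 4% DMSO, EDTA stop. Microfluidic mobility-shift product/substrate conversion gave % inhibition; IC50 from 12-point series (10–0.00003 μM) by 4-parameter fit.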
Structure (SMILES),IC50 (Caliper LabChip assay),IC50
CC1(Nc2nc(Nc3cc(C(C)(C)O)ncn3)cc3ccn(CC(O)CO)c(=O)c23)CCC1 (stereo not shown) [compound 732],0.035 µM,
COc1cncc(-c2cc3cc[nH]c(=O)c3c(Nc3ccc(C4CCC(N(C)C)CC4)cc3)n2)n1 (stereo not shown) [compound 109],,0.031 µM
CN(C)[C@H]1CC[C@H](c2ccc(Nc3nc(-c4cncnc4)cc4cc[nH]c(=O)c34)cc2)CC1 [compound 92],,0.045 µM
N#CCCn1ccc2cc(Nc3cnccn3)nc(N[C@H]3CC[C@@H](O)CC3)c2c1=O [compound 1002],0.014 µM,
CCn1ccc2cc(Nc3cnccn3)nc(N)c2c1=O [compound 802],1.18 µM,
CC(C)(C)Nc1nc(Nc2cc(N3CCCC(CO)C3)ccn2)cc2ccn(CCO)c(=O)c12 (stereo not shown) [compound 845],0.766 µM,
COc1cncc(-c2cc3cc[nH]c(=O)c3c(Nc3ccc(C4CCN(C5COC5)CC4)c(C)c3)n2)n1 [compound 164],,0.287 µM
CCC(C(=O)O)N1CCC(c2ccc(Nc3nc(-c4cncc(OC)n4)cc4cc[nH]c(=O)c34)cc2C)CC1 (stereo not shown) [compound 119],,0.005 µM
COc1cncc(-c2cc3cc[nH]c(=O)c3c(Nc3ccc(C4CCN(C(=O)[C@H](C)OC)CC4)c(C)c3)n2)n1 [compound 58],,0.04 µM
CCN1CCN(CCc2ccc(Nc3nc(Nc4ccc(C#N)cn4)cc4cc[nH]c(=O)c34)cc2)CC1 [compound 564],,0.385 µM
Cc1ccnc(Nc2cc3cc[nH]c(=O)c3c(Nc3ccc(N4CCOCC4)cc3)n2)c1 [compound 480],,0.015 µM
CC(C)(CO)Nc1nc(Nc2cnccn2)cc2ccn(CCO)c(=O)c12 [compound 473],,0.114 µM
CC(C)(C)Nc1nc(-c2cnc(N)nc2)cc2ccn(CC(O)CO)c(=O)c12 (stereo not shown) [compound 929],0.008 µM,
CNC(=O)CCN1CCC(c2ccc(Nc3nc(-c4cncc(OC)n4)cc4cc[nH]c(=O)c34)cc2C)CC1 [compound 161],,0.018 µM
[2H]C([2H])([2H])n1ccc2cc(Nc3cnccn3)nc(NC3CC3)c2c1=O [compound 824],0.018 µM,
CC(C)(O)Cn1ccc2cc(Nc3cc(C(C)(C)O)ncn3)nc(NC(C)(C)C)c2c1=O [compound 731],0.109 µM,
Cc1ccnc(Nc2cc3ccn(CCN4CCOCC4)c(=O)c3c(N[C@H]3CC[C@@H](O)CC3)n2)c1 [compound 993],0.067 µM,
COCCNc1nc(Nc2cc(C)ccn2)cc2cc[nH]c(=O)c12 [compound 527],,0.12 µM
COc1cncc(-c2cc3cc[nH]c(=O)c3c(Nc3ccc(C4CCN(CCN(C)C)CC4)c(C)c3)n2)n1 [compound 63],,0.033 µM

Structure (SMILES),IC50 (Caliper LabChip assay),IC50
CCCc1cc2cc[nH]c(=O)c2c(Nc2ccc(N3CCO[C@H](C)C3)c(C)c2)n1 [compound 225],,2.3 µM
CCn1ccc2cc(Nc3cc(C)ccn3)nc(N)c2c1=O [compound 801],1.9 µM,
COc1nc(-c2cc3cc[nH]c(=O)c3c(Nc3ccc(C4CCN(CCC#N)CC4)cc3)n2)cnc1N [compound 154],,0.02 µM
CCC(C)Nc1nc(Nc2ccc(F)cn2)cc2cc[nH]c(=O)c12 (stereo not shown) [compound 264],,0.423 µM
COc1cncc(-c2cc3cc[nH]c(=O)c3c(Nc3ccc4c(c3)C3CC4CN(C(=O)C(F)(F)F)C3)n2)n1 (stereo not shown) [compound 95],,2.37 µM
CC(C)(C)Nc1nc(Nc2cnccn2)c(Cl)c2ccn(CCO)c(=O)c12 [compound 837],1.06 µM,
CCN1CCN(CCc2ccc(Nc3nc(Nc4cc(C)ccn4)cc4cc[nH]c(=O)c34)cc2)CC1 [compound 585],,0.081 µM
CCN1CCN(CCc2ccc(Nc3nc(Nc4ccccn4)cc4cc[nH]c(=O)c34)cc2)CC1 [compound 551],,0.2 µM
COc1ccc(-c2cc3cc[nH]c(=O)c3c(Nc3ccc(C4CCN(C5CC5)CC4)c(C)c3)n2)cc1OC [compound 213],,0.99 µM
Nc1ncc(-c2cc3ccn(CC4CC4(F)F)c(=O)c3c(Nc3ccc(N4CCOCC4)cc3)n2)cn1 (stereo not shown) [compound 4],,0.489 µM
CCn1ccc2cc(Nc3cnccn3)nc(NC(C)(C)CO)c2c1=O [compound 895],0.027 µM,
Cc1ccc(-c2cc3cc[nH]c(=O)c3c(Nc3ccc(C4CCN(CCCF)CC4)c(C)c3)n2)cn1 [compound 46],,0.037 µM
Cc1ccnc(Nc2cc3cc[nH]c(=O)c3c(NC3CCC3)n2)c1 [compound 485],,0.045 µM
Cc1ccnc(Nc2cc3cc[nH]c(=O)c3c(N[C@H]3CCOC3)n2)c1 [compound 302],,0.083 µM
COc1ccc(Nc2nc(Nc3cc(C)ccn3)cc3cc[nH]c(=O)c23)cc1OC [compound 371],,0.233 µM
CC(C)(C)Nc1nc(Nc2cc(OCCO)ncn2)cc2ccn(C[C@H](O)CO)c(=O)c12 [compound 642],0.029 µM,
CC(C)(C)Nc1nc(Nc2cc(C(=O)NO)ccn2)cc2ccn(CCO)c(=O)c12 [compound 879],0.026 µM,
O=c1[nH]ccc2cc(C3=CCOCC3)nc(Nc3ccc(N4CCOCC4)cc3)c12 [compound 86],,0.096 µM
